Patent US6482815B1 (priority 1999, dated 2002)
Where two headings read alike, the source gives them in different places.

How the values were obtained:
[1] = system: NALM-6; assay: cells; assay type: cell-based; conditions: Homo sapiens, NALM-6, read-out: NALM-6 IC50
[2] = system: MOLT-3; assay: cells; assay type: cell-based; conditions: Homo sapiens, MOLT-3, read-out: MOLT-3 IC50
[3] = system: ALL1; assay: cells; assay type: cell-based; conditions: Homo sapiens, read-out: ALL1 IC50
[4] = system: RS4;11; assay: cells; assay type: cell-based; conditions: Homo sapiens, RS4-11, read-out: RS4;11 IC50
[5] = system: NALM-6; assay: Anti-proliferative activity (colony counts), NALM-6; assay type: cell-based, human
Text: (§1) The dose-responsive anti-proliferative activity of various organic arsenic acid substituted compounds against leukemic cell lines (NALM-6 and MOLT-3) is shown below in Table 3. FIGS. 3A-3F show dose response curves in ALL1, NALM-6, and MOLT-3 cells.

[6] = system: MOLT-3; assay: Anti-proliferative activity (colony counts), MOLT-3; assay type: cell-based, human
Text: as §1

[7] = system: BT20; assay: cells; conditions: Homo sapiens, BT-20, read-out: BT20 IC50
[8] = system: primary leukemic cells; assay: MTT cytotoxicity against primary leukemic cells; conditions: cells from 5 leukemia patients, FIGS. 4A-4E
[9] = system: BT20
[10] = system: leukemic cell lines (NALM-6, MOLT-3, ALL1, RS4;11); assay: cells; conditions: Homo sapiens, read-out: IC50 values in leukemic cell lines
[11] = system: NALM-6 cells; assay: MTT cytotoxicity over 1-4 days versus arsenic trioxide, NALM-6; conditions: MTT, doses 0.07 μM to 5 μM
[12] = NALM-6, concentration 0.1 (mM as printed)
[13] = NALM-6, concentration 1 (mM as printed)
[14] = NALM-6, concentration 10 (mM as printed)
[15] = NALM-6, concentration 100 (mM as printed)
[16] = MOLT-3, concentration 0.1 (mM as printed)
[17] = MOLT-3, concentration 1 (mM as printed)
[18] = MOLT-3, concentration 10 (mM as printed)
[19] = MOLT-3, concentration 100 (mM as printed)

Row | Molecule | melting point [°C] | IC50 [1] [µM] | IC50 [2] [µM] | IC50 [3] [µM] | IC50 [4] [µM] | % Inhibition [5, 12] [%] | Mean No. of Colonies/10^6 Cells [5, 12] | % Inhibition [5, 13] [%] | Mean No. of Colonies/10^6 Cells [5, 13] | % Inhibition [5, 14] [%] | Mean No. of Colonies/10^6 Cells [5, 14] [Colonies/10^6 Cells] | % Inhibition [5, 15] [%] | Mean No. of Colonies/10^6 Cells [5, 15] [Colonies/10^6 Cells] | Mean No. of Colonies/10^6 Cells [6, 16] | % Inhibition [6, 17] [%] | Mean No. of Colonies/10^6 Cells [6, 17] | % Inhibition [6, 18] [%] | Mean No. of Colonies/10^6 Cells [6, 18] [Colonies/10^6 Cells] | % Inhibition [6, 19] [%] | IC50 [7] [µM] | other results
1 | COc1cc2ncnc(Nc3ccc([As](=O)(O)O)cc3)c2cc1OC | > 300 | – | – | – | – | – | – | – | – | – | – | – | – | – | – | – | – | – | – | – | –
2 | COc1cc2ncnc(Nc3ccc(N=Nc4ccc([As](=O)(O)O)cc4)cc3)c2cc1OC [WHI-P273, 4-[(6′,7′-Dimethoxyquinazoline-4′)-aminophenylazo]phenyl arsenic acid] | – | 7.3 | 12.1 | 8.2 | 7.7 | 13.7 | 3638(3260, 4016) Colonies/10^6 Cells | 98.5 | 61(24, 96) Colonies/10^6 Cells | 100 | 0 | 100 | 0 | 1230(968, 1492) Colonies/10^6 Cells | 75 | 264(216, 312) Colonies/10^6 Cells | 100 | 0 | 100 | > 250 | Mean No. of Colonies/10^6 Cells [6, 19]: 0 Colonies/10^6 Cells; cytotoxic activity against primary leukemic cells (in words) [8]: susceptible to the cytotoxic effects
3 | CSc1nccc(Nc2ccc(N=Nc3ccc([As](=O)(O)O)cc3)cc2)n1 [WHI-P370, 2-Methylthio-4-[(4′-aminophenylazo)-phenylarsenic acid]pyrimidine] | 240 to 242 | 5.98 | 2.9 | 1.9 | 4.8 | 30.9 | 2194(2860, 2968) Colonies/10^6 Cells | 100 | 0 Colonies/10^6 Cells | 100 | 0 | 100 | 0 | 992(896, 1088) Colonies/10^6 Cells | 100 | 0 Colonies/10^6 Cells | 100 | 0 | 100 | 67.8 | % Inhibition [6, 16]: 6.1%; Mean No. of Colonies/10^6 Cells [6, 19]: 0 Colonies/10^6 Cells; cytotoxic against the breast cancer cell line BT20 (in words) [9]: cytotoxic; cytotoxic activity against primary leukemic cells (in words) [8]: susceptible to the cytotoxic effects
4 | O=[As](O)(O)c1ccc(N=Nc2ccc(Nc3ncnc4[nH]cnc34)cc2)cc1 [WHI-P371, 6-[(4′-Aminophenylazo)-phenylarsenic acid]-purine] | > 300 | 15.2 | 21.6 | 24.5 | 16.2 | 8.8 | 3846(3696, 3996) Colonies/10^6 Cells | 76.4 | 994(616, 1372) Colonies/10^6 Cells | 100 | 0 | 100 | 0 | 1098(1004, 1192) Colonies/10^6 Cells | 27.9 | 761(678, 844) Colonies/10^6 Cells | 100 | 0 | 100 | > 250 | Mean No. of Colonies/10^6 Cells [6, 19]: 0 Colonies/10^6 Cells; cytotoxic activity against primary leukemic cells (in words) [8]: susceptible to the cytotoxic effects
5 | Nc1nc(N)nc(Nc2ccc(N=Nc3ccc([As](=O)(O)O)cc3)cc2)n1 [WHI-P374, 2,6-Diamino-4[(4′-aminophenylazo)-phenylarsenic acid]-1,3,5-triazine] | > 300 | 50.1 | 104 | 55.8 | 53.6 | – | – | – | – | – | – | – | – | – | – | – | – | – | – | 13.9 | cytotoxic against the breast cancer cell line BT20 (in words) [9]: cytotoxic
6 | COc1cc2ncnc(Nc3ccccc3[As](=O)(O)O)c2cc1OC [WHI-P378, 4-(2′-phenylarsenic acid)amino-6,7-dimethoxyquinazoline] | > 300 | 46.6 | 67.3 | 128 | 115 | – | – | – | – | – | – | – | – | – | – | – | – | – | – | > 250 | –
7 | CSc1nccc(Nc2ccc([As](=O)(O)O)cc2)n1 [WHI-P380, 2-Methylthio-4-(4′-phenylarsenic acid)-aminopyrimidine] | > 300 | 1.7 | 14.2 | 6.2 | 10.2 | 66.9 | 400(116, 684) Colonies/10^6 Cells | 99.8 | 2(3, 1) Colonies/10^6 Cells | 100 | 0 | 100 | 0 | 678(624, 732) Colonies/10^6 Cells | 69.7 | 436(272, 600) Colonies/10^6 Cells | 100 | 0 | 100 | 239 | % Inhibition [6, 16]: 52.8%; Mean No. of Colonies/10^6 Cells [6, 19]: 0 Colonies/10^6 Cells; IC50 [10]: 1.7 to 14.2 µM; cytotoxic activity against primary leukemic cells (in words) [8]: susceptible to the cytotoxic effects
8 | Arsenic trioxide [reference compound] | – | – | – | – | – | – | – | – | – | – | – | – | – | – | – | – | – | – | – | – | IC50 ([11]; read-out: Cytotoxicity against NALM-6 cells IC50, Day 1, 1 day of treatment): 3.8 µM; IC50 ([11]; read-out: Cytotoxicity against NALM-6 cells IC50, Day 2, 2 days of treatment): 3.2 µM; IC50 ([11]; read-out: Cytotoxicity against NALM-6 cells IC50, Day 3, 3 days of treatment): 2 µM; IC50 ([11]; read-out: Cytotoxicity against NALM-6 cells IC50, Day 4, 4 days of treatment): 1.2 µM
